PubChem BioAssay (NCI)
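Five concentrations, 48 hours, 96-well plates. Definition used: TGI = concentration required for complete inhibition of growth.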

Legend:
Assay in all cases: NCI anticancer screen, dose series, 48 h
[1] = tested on: 786-0 renal
[2] = tested on: A498 renal
[3] = tested on: A549 NSCLC
[4] = tested on: ACHN renal
[5] = tested on: CAKI-1 renal
[6] = tested on: CCRF-CEM leukemia
[7] = tested on: COLO 205 colon
[8] = tested on: DLD-1 colon
[9] = tested on: DMS 114 small cell lung
[10] = tested on: DMS 273 small cell lung
[11] = tested on: EKVX NSCLC
[12] = tested on: HCC-2998 colon
[13] = tested on: HCT-116 colon
[14] = tested on: HCT-15 colon
[15] = tested on: HL-60(TB) leukemia
[16] = tested on: HOP-18 NSCLC
[17] = tested on: HT29 colon
[18] = tested on: IGROV1 ovarian
[19] = tested on: K-562 leukemia
[20] = tested on: KM12 colon
[21] = tested on: KM20L2 colon
[22] = tested on: LOX IMVI melanoma
[23] = tested on: LXFL 529 NSCLC
[24] = tested on: M14 melanoma
[25] = tested on: M19-MEL melanoma
[26] = tested on: MALME-3M melanoma
[27] = tested on: MOLT-4 leukemia
[28] = tested on: NCI-H226 lung
[29] = tested on: NCI-H23 lung
[30] = tested on: NCI-H460 lung
[31] = tested on: OVCAR-3 ovarian
[32] = tested on: OVCAR-4 ovarian
[33] = tested on: OVCAR-5 ovarian
[34] = tested on: OVCAR-8 ovarian
[35] = tested on: RPMI-8226 leukemia
[36] = tested on: RXF 393 renal
[37] = tested on: RXF-631 renal
[38] = tested on: SF-268 CNS
[39] = tested on: SF-295 CNS
[40] = tested on: SF-539 CNS
[41] = tested on: SK-MEL-2 melanoma
[42] = tested on: SK-MEL-28 melanoma
[43] = tested on: SK-MEL-5 melanoma
[44] = tested on: SK-OV-3 ovarian
[45] = tested on: SN12C renal
[46] = tested on: SNB-19 CNS
[47] = tested on: SNB-75 CNS
[48] = tested on: SNB-78 CNS
[49] = tested on: SW-620 colon
[50] = tested on: TK-10 renal
[51] = tested on: U251 CNS
[52] = tested on: UACC-257 melanoma
[53] = tested on: UACC-62 melanoma
[54] = tested on: UO-31 renal
[55] = tested on: XF 498 CNS
[56] = tested on: HOP-62 NSCLC
[57] = tested on: HOP-92 NSCLC
[58] = tested on: NCI-H522 lung
[59] = tested on: SR leukemia

Structure (SMILES): O=C1C2C(C(=O)N1c1ccccc1)C1(Br)c3ccccc3C2(Br)C2C(=O)N(c3ccccc3)C(=O)C21 (stereo unspecified)
- TGI [1]: > 31.6 µM
- TGI [2]: > 100 µM
- TGI [3]: > 31.6 µM
- TGI [4]: > 31.6 µM
- TGI [5]: > 100 µM
- TGI [6]: > 31.6 µM
- TGI [7]: > 31.6 µM
- TGI [8]: > 31.6 µM
- TGI [9]: > 31.6 µM
- TGI [10]: > 31.6 µM
- TGI [11]: > 31.6 µM
- TGI [12]: > 31.6 µM
- TGI [13]: > 31.6 µM
- TGI [14]: > 31.6 µM
- TGI [15]: > 31.6 µM
- TGI [16]: > 31.6 µM
- TGI [17]: > 31.6 µM
- TGI [18]: > 31.6 µM
- TGI [19]: > 31.6 µM
- TGI [20]: > 31.6 µM
- TGI [21]: > 31.6 µM
- TGI [22]: > 31.6 µM
- TGI [23]: > 31.6 µM
- TGI [24]: > 31.6 µM
- TGI [25]: > 31.6 µM
- TGI [26]: > 31.6 µM
- TGI [27]: > 31.6 µM
- TGI [28]: > 31.6 µM
- TGI [29]: > 31.6 µM
- TGI [30]: > 31.6 µM
- TGI [31]: > 31.6 µM
- TGI [32]: > 100 µM
- TGI [33]: > 31.6 µM
- TGI [34]: > 100 µM
- TGI [35]: > 31.6 µM
- TGI [36]: 27.1 µM
- TGI [37]: > 100 µM
- TGI [38]: > 31.6 µM
- TGI [39]: > 100 µM
- TGI [40]: > 31.6 µM
- TGI [41]: > 31.6 µM
- TGI [42]: > 31.6 µM
- TGI [43]: > 31.6 µM
- TGI [44]: > 100 µM
- TGI [45]: > 31.6 µM
- TGI [46]: > 31.6 µM
- TGI [47]: > 31.6 µM
- TGI [48]: > 31.6 µM
- TGI [49]: > 31.6 µM
- TGI [50]: > 31.6 µM
- TGI [51]: > 31.6 µM
- TGI [52]: > 31.6 µM
- TGI [53]: > 31.6 µM
- TGI [54]: > 31.6 µM
- TGI [55]: > 100 µM

Structure (SMILES): COc1ccc(NC(=O)/C(Cc2nc3ccccc3[nH]c2=O)=N\O)c(OC)c1
- TGI [1]: > 100 µM
- TGI [2]: > 100 µM
- TGI [3]: > 100 µM
- TGI [4]: > 100 µM
- TGI [5]: > 100 µM
- TGI [6]: > 100 µM
- TGI [7]: > 100 µM
- TGI [8]: > 100 µM
- TGI [9]: > 100 µM
- TGI [11]: > 100 µM
- TGI [12]: > 100 µM
- TGI [13]: > 100 µM
- TGI [14]: > 100 µM
- TGI [15]: > 100 µM
- TGI [16]: > 100 µM
- TGI [56]: > 100 µM
- TGI [57]: > 100 µM
- TGI [17]: > 100 µM
- TGI [18]: > 100 µM
- TGI [19]: > 100 µM
- TGI [20]: > 100 µM
- TGI [21]: > 100 µM
- TGI [22]: > 100 µM
- TGI [23]: > 100 µM
- TGI [24]: > 100 µM
- TGI [25]: > 100 µM
- TGI [26]: > 100 µM
- TGI [28]: > 100 µM
- TGI [29]: > 100 µM
- TGI [30]: > 100 µM
- TGI [58]: > 100 µM
- TGI [31]: > 100 µM
- TGI [32]: > 100 µM
- TGI [33]: > 100 µM
- TGI [34]: > 100 µM
- TGI [35]: > 100 µM
- TGI [36]: > 100 µM
- TGI [37]: > 100 µM
- TGI [38]: > 100 µM
- TGI [39]: > 100 µM
- TGI [40]: > 100 µM
- TGI [42]: > 100 µM
- TGI [43]: > 100 µM
- TGI [44]: > 100 µM
- TGI [45]: > 100 µM
- TGI [46]: > 100 µM
- TGI [47]: > 100 µM
- TGI [48]: > 100 µM
- TGI [59]: > 100 µM
- TGI [49]: > 100 µM
- TGI [50]: > 100 µM
- TGI [51]: > 100 µM
- TGI [52]: > 100 µM
- TGI [53]: > 100 µM
- TGI [54]: > 100 µM
- TGI [55]: > 100 µM
